The source of these data is patent publication US20080269214A1, “Pyrrole Derivatives as Dna Gyrase and Topoisomerase Inhibitors” (ASTRAZENECA AB, priority 2005, published 2008).

Converted amounts (≈) assume the structure as drawn.

Test in all cases: Bacterial susceptibility testing in liquid media (MIC)
In one assay the test system is SAU516. It counts as cell-based. The conditions noted are these: strain SAU516; no unit printed in table (b320 text uses μg/ml); growth reduced by 80% or more, 24 hrs. The method, then: (§1) Compounds were tested for antimicrobial activity by susceptibility testing in liquid media. Compounds were dissolved in dimethylsulfoxide and tested in 10 doubling dilutions in the susceptibility assays. The organisms used in the assay were grown overnight on suitable agar media and then suspended in a liquid medium appropriate for the growth of the organism. The suspension was a 0.5 McFarland and a further 1 in 10 dilution was made into the same liquid medium to prepare the final organism suspension in 100 µL. Plates were incubated under appropriate conditions at 37 degrees C. for 24 hrs prior to reading. The Minimum Inhibitory Concentration was determined as the lowest drug concentration able to reduce growth by 80% or more.

The next assay has as its system HIN446. It counts as cell-based. Particulars: strain HIN446; no unit printed in table (b320 text uses μg/ml); growth reduced by 80% or more, 24 hrs. The method, then: as §1
The test system of another assay is SPN548. It counts as cell-based, Streptococcus pneumoniae. Particulars: strain SPN548; no unit printed in table (b320 text uses μg/ml); growth reduced by 80% or more, 24 hrs. The method, then:
as §1

In another assay the test system is Streptococcus pneumoniae. It counts as cell-based. The conditions noted are these: lowest concentration reducing growth by 80% or more, 37 degrees C., 24 hrs, read-out: MIC against Streptococcus pneumoniae. The protocol:
as §1

On to `Cc1[nH]c(C(=O)Nc2ccc(-c3cncc(C(=O)O)c3)cc2)c(Cl)c1Cl` [Example 23, 5-[4-[[(3,4-Dichloro-5-methyl-1H-pyrrol-2-yl)carbonyl]amino]phenyl]-3-pyridinecarboxylic acid], for which, in the assay on SAU516, the “MIC SAU516” value is recorded as 4. Further, the “MIC HIN446” value in the assay on HIN446 was 2. In the assay with SPN548, the “MIC SPN548” value is reported as 0.13.

For the molecule `CNc1ncc(-c2ccc(NC(=O)c3[nH]c(C)c(Cl)c3Cl)cc2)cc1C(=O)O` [Example 25, 5-(4-{[(3,4-Dichloro-5-methyl-1H-pyrrol-2-yl)carbonyl]amino}phenyl)-2-(methylamino)nicotinic acid], the “MIC SAU516” value in the assay on SAU516 is given as 2. For the same molecule, the “MIC HIN446” value against HIN446 is listed as 4. Further, in the assay on SPN548, the “MIC SPN548” value came to 1.

`Cc1[nH]c(C(=O)Nc2ccc(-c3cnc(Cl)c(C(=O)O)c3)cc2)c(Cl)c1Cl` [Example 26, 2-Chloro-5-(4-{[(3,4-dichloro-5-methyl-1H-pyrrol-2-yl)carbonyl]amino}phenyl)nicotinic acid]: the “MIC SAU516” value against SAU516 is 32. Moreover, the “MIC HIN446” value in the assay on HIN446 stood at 8. Besides, the “MIC SPN548” value against SPN548 worked out at 1.

Consider `Cc1[nH]c(C(=O)Nc2ccc(-c3cc(C(=O)O)ccn3)cc2)c(Cl)c1Cl` [Example 27, 2-(4-{[(3,4-Dichloro-5-methyl-1H-pyrrol-2-yl)carbonyl]amino}phenyl)isonicotinic acid], for which the “MIC SAU516” value against SAU516 was 2. Moreover, the “MIC HIN446” value in the assay on HIN446 came to 2. The “MIC SPN548” value against SPN548 stood at 0.13.

Take `COc1ncc(-c2ccc(NC(=O)c3[nH]c(C)c(Cl)c3Cl)cc2)cc1C(=O)O` [Example 30, 5-(4-{[(3,4-Dichloro-5-methyl-1H-pyrrol-2-yl)carbonyl]amino}phenyl)-2-methoxynicotinic acid]: in the assay with Streptococcus pneumoniae, the MIC (as a rule, the lowest concentration found to suppress growth) amounted to 1 µg/mL (≈ 2.38 µM).

In the case of `Cc1[nH]c(C(=O)Nc2ccc(-c3ccc(C(=O)O)o3)cc2)c(Cl)c1Cl` [Example 36, 5-(4-{[(3,4-Dichloro-5-methyl-1H-pyrrol-2-yl)carbonyl]amino}phenyl)-2-furoic acid], the “MIC SAU516” value with SAU516 worked out at 2. Moreover, the “MIC HIN446” value against HIN446 is 1. Besides, the “MIC SPN548” value in the assay with SPN548 amounted to 0.25.
